# Data taken from patent US10544075B2 (OREGON HEALTH & SCIENCE UNIVERSITY, priority 2016, dated 2020).
# How the values were obtained:
# [1] = 24 h time-course study after oral dose of MA-JD20; format: in vivo, mice; details: oral MA-JD20, JD-20 measured
# Method: As a follow-up of the single time point study, a 24 h time course study through oral gavage was performed for the amides, MA-JD20 and MA-JD21, and the corresponding JD-20 or JD-21 concentrations were measured in brain and blood of mice. Pharmacokinetic time-course curves were generated from these analyses and area under the curve (AUC) values for brain and blood were obtained.
# Following the single time point drug distribution evaluation, to further understand the pharmacokinetic properties of the amide, a 24 h time-course study was conducted by administering an oral dose of […] of MA-JD20 to mice. The JD-20 concentrations generated in brain and blood were analyzed and area under the curve (AUC) values for brain and serum were obtained (FIG. 7). The AUCbrain/AUCserum ratio for amide MA-JD-20 is observed to be 0.89. […] The results obtained from the single point drug distribution were confirmed by the AUC analyses.
# [2] = target: Human FAAH (Homo sapiens (Human), UniProt O00519); assay: FAAH activity in cell homogenate; format: biochemical
# Chain of Human FAAH (O00519 whole entry): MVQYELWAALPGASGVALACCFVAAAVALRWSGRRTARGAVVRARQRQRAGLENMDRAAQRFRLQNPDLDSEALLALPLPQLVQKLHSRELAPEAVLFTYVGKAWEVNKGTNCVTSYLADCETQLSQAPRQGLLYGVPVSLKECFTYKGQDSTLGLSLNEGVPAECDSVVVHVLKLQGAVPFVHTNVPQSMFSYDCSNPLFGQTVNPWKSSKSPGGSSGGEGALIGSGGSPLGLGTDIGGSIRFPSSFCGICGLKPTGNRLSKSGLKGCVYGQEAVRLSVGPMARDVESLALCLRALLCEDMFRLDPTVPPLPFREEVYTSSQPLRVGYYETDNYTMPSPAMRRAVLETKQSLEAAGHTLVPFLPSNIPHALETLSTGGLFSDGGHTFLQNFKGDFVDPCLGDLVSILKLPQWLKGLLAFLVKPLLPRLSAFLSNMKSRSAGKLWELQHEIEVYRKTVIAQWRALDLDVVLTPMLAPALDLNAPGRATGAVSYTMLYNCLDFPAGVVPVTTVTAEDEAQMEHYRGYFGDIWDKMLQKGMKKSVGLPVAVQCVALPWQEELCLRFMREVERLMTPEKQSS
# Method: COS-7 cells (ATCC CRL-1651) were cultured in Dulbecco's Modified Eagle's Medium supplemented with 10% FBS, penicillin ([…]), and streptomycin ([…]). Cells (800,000/well) were seeded into 6-well plates (Falcon 353046) and left to adhere overnight. Cells were transfected with pcDNA4-FAAH-FLAG with Lipofectamine 2000 (Invitrogen) according to the manufacturer's protocol. Mock transfection controls were done with transfection reagent and no DNA. Cells were washed 4-days post transfection with cold PBS and scraped into TE buffer (125 mM Tris, 1 mM EDTA, pH 9) and sonicated (10 sec, 60 Sonic Dismembrator, Fisher). Cell homogenates were stored at −80° C. and protein concentrations were determined by BCA (Pierce). Cell homogenates were diluted into TE buffer containing 0.1% fatty-acid free BSA (Alfa Aesar). Substrates were added as 50× stocks in DMSO into 50 μL aliquots of homogenate to a final concentration of 100 μM. Reactions were performed with homogenate protein at 31.25 μg/mL for 15 min at 37° C. Reactions were quenched with 100 μL acetonitrile and vortexed for 20 s. Samples were clarified by centrifuge (10,000 rpm, 15 min, 4° C.). The supernatant is diluted 50-fold into 2:1 MeCN:H2O containing 300 nM d11-arachindonic acid and 30 nM d6-sobetirome. Samples were centrifuged again (13,200 rpm, 15 min, 4° C.). Products were quantified by LC/MS-MS with standard curves generated from mock samples. Observed rates are expressed as nmol product per mg protein homogenate per min.
# FAAH was overexpressed in COS-7 cells as described above and cell homogenate was used to measure observed rates of substrate cleavage compared with the classic endogenous FAAH substrate anandamide (AEA). Substrate were all tested at 100 μM. Compared to AEA, the thyromimetic amides MA-GC 1 (9-fold), MA-JD20 (31-fold), and MA-JD21 (20-fold) show decreased rates. […] Observed rates are expressed as nmol product per mg homogenate protein per min.
# [3] = Single time-point drug distribution of parent drugs from amides in brain and serum; format: in vivo, C57Bl/6 mice; details: equimolar systemic dose of 3.05 μmol/kg, 1 hour, brain
# Method: Wild type male C57Bl/6 mice, aged 8-10 weeks, were housed in a climate-controlled room with a 12 hour light-dark cycle with ad libitum access to food and water. To compare the single time-point drug distribution of JD-20 with JD-20 generated from the amide MA-JD20, and JD-21 with JD-21 generated from the amide MA-JD-21, the concentrations of the parent drugs were analyzed in brain and serum of mice by administering a dose of 3.05 μmol/kg (three mice per dose) with JD-20, JD-21, MA-JD20 and MA-JD21 both intraperitoneally and orally. The compounds were dissolved in a mixture of 50:50 DMSO and 0.9% sodium chloride bacteriostatic solution. Oral gavage was performed with the use of plastic feeding tubes (20 ga×38 mm, Instech Laboratories Inc., PA, USA) connected to […] insulin syringes (Covidien LLC MA, USA). In both experiments, the mice were euthanized after 1 hour following drug administration.
# The tissues were processed as follows: The brains were collected in previously weighed homogenizer tubes with 3 Gold Spec ⅛ chrome steel balls (Applied Industrial Technologies) and immediately frozen at −80° C. The blood samples were kept on ice for 30 mins and then spun down at 5400×G at 4° C. for 15 min. […]
# The serum samples were warmed to room temperature. […] The serum samples thus prepared were submitted for LC-MS/MS analysis to quantify the amount of free JD-20 or JD-21. […]
smiles,measurement,setting,value
"CNC(=O)COc1cc(Br)c(Cc2ccc(O)c(C(C)C)c2)c(Br)c1 [MA-JD20, 2-(3,5-dibromo-4-(4-hydroxy-3-isopropylbenzyl)phenoxy)-N-methylacetamide]",Cmax and Tmax time in the brain tissue,[1],around 2 h
same,FAAH substrate,"[2]; 100 μM, COS-7 cell homogenate",substrates for fatty-acid amide hydrolase (FAAH)
same,decreased observed rate of substrate cleavage compared to AEA,"[2]; substrate 100 μM, FAAH overexpressed in COS-7 cell homogenate",31 fold
same,parent drug delivered to the CNS compared to unmodified JD-20 or JD-21,[3],delivers more of the parent drugs to the CNS
